Data reported in patent US4328215A, “Method of reducing or avoiding the mutagenic activity of drugs” (The Johns Hopkins University, priority 1977, dated 1982).

What was measured:
Schistosoma mansoni = test: Antischistosomal activity in infected mice; type: in vivo
[1] = test system: Salmonella typhimurium Strain TA 100; test: Urine analysis (Ames test) of mice treated with CGP 4540, strain TA 100, with/without S9;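 also: mouse urine gathered in 24 h periods after drug dosing, 0.1 and 0.25 ml aliquots plated on the bacteria, plates counted following 48 h at 37 °C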
Protocol: Mice are placed into a metabolism cage and control urines are collected on ice for 24 hours. These animals are then treated with the drug and urine is collected in refrigerated containers for the two subsequent 24-hour periods. The volume of the urine is measured and the urine is stored at -80° C. until assayed.
Urine specimens are thawed, centrifuged at 10,000×g for 15 minutes and sterilized by filtration through a 0.22 μm Millipore filter. Effects of 0.1 and 0.25 ml aliquots are tested on strains TA 100 with and without added S9 microsomal fraction. Plates are counted after incubation at 37° C. for 48 hours. The dose response at these two urine concentrations is used to calculate the number of revertants induced by the total volume of urine excreted in 24 hours. […] Aliquots of this mixture are tested after adjustment to pH 7 in the absence and the presence of the S9 fraction.
The mice were infected with S. typhimurium TA 100 as the test strain and the CGP 4540 was formulated as in Example 1. […] Three control mice were employed.

[2] = CGP 4540 20 mg/kg, succinylsulfathiazole 1 g/kg + bacitracin 220 mg/kg

## O=[N+]([O-])c1ccc(Nc2ccc(N=C=S)cc2)cc1 [CGP 4540]
Schistosoma mansoni; CGP 4540 20 mg/kg, no antibacterial
  Reduction in no. of worms: 100%
Schistosoma mansoni; [2]
  Mice with parasitological cures: 100%
  Reduction in no. of worms: 100%
Schistosoma mansoni; erythromycin base or erythromycylamine
  Curative antischistosomal activity after preceding antibiotic treatment: not reduced
Schistosoma mansoni; formulated CGP 4540, oral and intramuscular
  Effectiveness against schistosomiasis, oral vs intramuscular: about equally effective
Schistosoma mansoni; succinylsulfathiazole 1 g/kg once daily for 3 days, oral
  Antischistosomal activity after reduction of bacterial flora: do not appear to affect the antischistosomal activity
[1]; CGP 4540 100 mg/kg oral, no pretreatment, day 1, +S9
  Urine revertants in excess of controls: 239 revertants per total 24 hour u
[1]; CGP 4540 100 mg/kg oral, no pretreatment, day 1, no S9
  Urine revertants in excess of controls: 56 revertants per total 24 hour u
[1]; CGP 4540 100 mg/kg oral, no pretreatment, day 2, +S9
  Urine revertants in excess of controls: 30 revertants per total 24 hour u
[1]; CGP 4540 100 mg/kg oral, no pretreatment, day 2, no S9
  Urine revertants in excess of controls: 11 revertants per total 24 hour u
[1]; CGP 4540 100 mg/kg oral, succinylsulfathiazole 1 g/kg, day 1, +S9
  Urine revertants in excess of controls: 108 revertants per total 24 hour u
[1]; CGP 4540 100 mg/kg oral, succinylsulfathiazole 1 g/kg, day 1, no S9
  Urine revertants in excess of controls: 37 revertants per total 24 hour u
[1]; CGP 4540 100 mg/kg oral, succinylsulfathiazole 1 g/kg, day 2, +S9
  Urine revertants in excess of controls: 12 revertants per total 24 hour u
[1]; CGP 4540 100 mg/kg oral, succinylsulfathiazole 1 g/kg, day 2, no S9
  Urine revertants in excess of controls: 0 revertants per total 24 hour u
[1]; CGP 4540 250 mg/kg oral, bacitracin 220 mg/kg, day 1, +S9
  Urine revertants in excess of controls: 96 revertants per total 24 hour u
[1]; CGP 4540 250 mg/kg oral, bacitracin 220 mg/kg, day 1, no S9
  Urine revertants in excess of controls: 31 revertants per total 24 hour u
[1]; CGP 4540 250 mg/kg oral, bacitracin 220 mg/kg, day 2, +S9
  Urine revertants in excess of controls: 10 revertants per total 24 hour u
[1]; CGP 4540 250 mg/kg oral, bacitracin 220 mg/kg, day 2, no S9
  Urine revertants in excess of controls: 4 revertants per total 24 hour u
[1]; CGP 4540 250 mg/kg oral, bacitracin 440 mg/kg, day 1, +S9
  Urine revertants in excess of controls: 0 revertants per total 24 hour u
[1]; CGP 4540 250 mg/kg oral, bacitracin 440 mg/kg, day 1, no S9
  Urine revertants in excess of controls: 0 revertants per total 24 hour u
[1]; CGP 4540 250 mg/kg oral, bacitracin 440 mg/kg, day 2, +S9
  Urine revertants in excess of controls: 0 revertants per total 24 hour u
[1]; CGP 4540 250 mg/kg oral, bacitracin 440 mg/kg, day 2, no S9
  Urine revertants in excess of controls: 0 revertants per total 24 hour u
[1]; CGP 4540 250 mg/kg oral, erythromycin base 100 mg/kg, day 1, +S9
  Urine revertants in excess of controls: 0 revertants per total 24 hour u
[1]; CGP 4540 250 mg/kg oral, erythromycin base 100 mg/kg, day 1, no S9
  Urine revertants in excess of controls: 0 revertants per total 24 hour u
[1]; CGP 4540 250 mg/kg oral, erythromycin base 100 mg/kg, day 2, +S9
  Urine revertants in excess of controls: 0 revertants per total 24 hour u
[1]; CGP 4540 250 mg/kg oral, erythromycin base 100 mg/kg, day 2, no S9
  Urine revertants in excess of controls: 0 revertants per total 24 hour u
[1]; CGP 4540 250 mg/kg oral, no pretreatment, day 1, +S9
  Urine revertants in excess of controls: 541 revertants per total 24 hour u
[1]; CGP 4540 250 mg/kg oral, no pretreatment, day 1, no S9
  Urine revertants in excess of controls: 120 revertants per total 24 hour u
[1]; CGP 4540 250 mg/kg oral, no pretreatment, day 2, +S9
  Urine revertants in excess of controls: 89 revertants per total 24 hour u
[1]; CGP 4540 250 mg/kg oral, no pretreatment, day 2, no S9
  Urine revertants in excess of controls: 32 revertants per total 24 hour u
[1]; CGP 4540 250 mg/kg oral, succinylsulfathiazole 1 g/kg + bacitracin 220 mg/kg, day 1, +S9
  Urine revertants in excess of controls: 0 revertants per total 24 hour u
[1]; CGP 4540 250 mg/kg oral, succinylsulfathiazole 1 g/kg + bacitracin 220 mg/kg, day 1, no S9
  Urine revertants in excess of controls: 0 revertants per total 24 hour u
[1]; CGP 4540 250 mg/kg oral, succinylsulfathiazole 1 g/kg + bacitracin 220 mg/kg, day 2, +S9
  Urine revertants in excess of controls: 0 revertants per total 24 hour u
[1]; CGP 4540 250 mg/kg oral, succinylsulfathiazole 1 g/kg + bacitracin 220 mg/kg, day 2, no S9
  Urine revertants in excess of controls: 0 revertants per total 24 hour u
[1]; CGP 4540 250 mg/kg oral, succinylsulfathiazole 1 g/kg, day 1, +S9
  Urine revertants in excess of controls: 269 revertants per total 24 hour u
[1]; CGP 4540 250 mg/kg oral, succinylsulfathiazole 1 g/kg, day 1, no S9
  Urine revertants in excess of controls: 73 revertants per total 24 hour u
[1]; CGP 4540 250 mg/kg oral, succinylsulfathiazole 1 g/kg, day 2, +S9
  Urine revertants in excess of controls: 30 revertants per total 24 hour u
[1]; CGP 4540 250 mg/kg oral, succinylsulfathiazole 1 g/kg, day 2, no S9
  Urine revertants in excess of controls: 7 revertants per total 24 hour u
[1]; succinylsulfathiazole 1 g/kg once daily for 3 days before CGP 4540
  Mutagenic urinary metabolite: very marked decrease
